Converted amounts (≈) assume the structure as drawn. Where two headings read alike, the source gives them in different places.
Experiments:
Format in all cases: cell-based
Ceratocystis ulmi [1] = assay: agar growth test, percent inhibition of Ceratocystis ulmi; settings: 120 h, read-out: % Inhibition, Agar Growth
Protocol: (§1) The test procedures, the agar growth and shake culture tests, used to determine this latter activity are described as follows: In the agar growth test a solution of 2 mg. of the test compound in 2 ml. of acetone was prepared and 0.2 ml. of this solution was added via sterile glass pipette to 20 ml. of molten (42° C.) sterile potato dextrose agar. Mixing was accomplished by repeated inversion of the tube. The mixture was poured into a sterile Petri dish, allowed to solidify at room temperature, and then was inoculated by placing in the center of the agar-chemical mixture a section (3 mm. diameter) of agar permeated with the mycelium of Ceratocystis ulmi. The inoculated dish was incubated at 25° C. for 5 days when the diameter of growth was measured and compared to the growth which had occurred in a control culture. The percent inhibition was calculated as: [formula] In the shake culture test, a 0.2 ml. aliquot of an acetone solution of the test compound (2 mg. in 2 ml.) was added to 20 ml. of sterile potato dextrose broth in a sterile 250 ml. Erlenmeyer flask. The flask was stoppered with a plug of sterile cotton, and the mixture was shaken for one hour on a New Brunswick "Gyrotatary" shake table. The mixture was inoculated by addition of a section (3 mm. diameter) of agar permeated with the mycelium of Ceratocystis ulmi and returned to the shake table where shaking was continued for five days at room temperature. The optical density of the mixture was measured, using an uninoculated sample of the broth as a blank, and compared with a control sample. The percent inhibition was calculated as: […]
(§2) Data obtained for the compounds of the invention in in vitro tests against fungal organism, Ceratocystis ulmi, in the agar growth and shake culture tests in comparison with the known antibiotic, pyoluteorin, at a standard dilution of 10 parts per million are given in terms of percent inhibition in the table below. The compounds are identified by reference to the example number above where their preparation is described.

Ceratocystis ulmi [2] = assay: shake culture test, percent inhibition of Ceratocystis ulmi; settings: 120 h, read-out: % Inhibition, Shake Culture
Protocol: as §1, §2

Escherichia coli 198 = assay: in vitro antibacterial test (modified Autotiter method), minimum inhibitory concentration
Protocol: (§3) The antibacterial activity was determined using a modification of the Autotiter method described by Goss et al., Applied Microbiology, 16 (No. 9), 1414-1416 (1968) in which a 1000 mcg./ml. solution of the test compound is prepared. To the first cup of the Autotray is added 0.1 ml. of the test solution. Activation of the Autotiter initiates a sequence of operations by which 0.05 ml. of the test compound solution is withdrawn from this cup by a Microtiter transfer loop and diluted in 0.05 ml. of sterile semisynthetic medium (glucose). After this operation, 0.05 ml. of inoculated semisynthetic medium is added automatically to each cup. The overall operation results in final drug concentrations ranging from 500 to 0.06 mcg./ml. in twofold decrements. The Autotray is incubated for 18-20 hours at 37° C., at which time the trays are examined visually for growth as evidenced by turbidity, and the concentration of the last sample in the series showing no growth (or no turbidity) is recorded as the minimal inhibitory concentration (MIC). The compounds of formula I were thus found to be antibacterially effective against Staphylococcus aureus, Pseudomonas aeruginosa, Escherichia coli, and Proteus vulgaris at concentrations from 2 to 500 mcg./ml.
(§4) Data, expressed in terms of the minimum inhibitory concentration in mcg./ml., obtained in in vitro tests of the compounds of the invention in comparison with pyoluteorin against the bacterial organisms Staphylococcus aureus 209, Escherichia coli 198, Klebsiella pneumoniae 39645, Proteus vulgaris 9920, and Pseudomonas aeruginosa 211 (identified below as organisms A, B, C, D and E, respectively) are given in the table below.

[3] = test system: Klebsiella pneumoniae 39645; assay: as above; settings: organism C
Protocol: as §3, §4

Proteus vulgaris 9920 = assay: as above
Protocol: as §3, §4

[4] = test system: Pseudomonas aeruginosa 211; assay: as above
Protocol: as §3, §4

[5] = test system: Staphylococcus aureus 209; assay: as above
Protocol: as §3, §4

[6] = 10 parts per million, agar, 25° C., 5 days
[7] = 10 parts per million, broth, room temperature, five days
[8] = organism B, Escherichia coli 198, in vitro, read-out: minimum inhibitory concentration (MIC)
[9] = organism D, Proteus vulgaris 9920, in vitro, read-out: minimum inhibitory concentration (MIC)
[10] = organism E, Pseudomonas aeruginosa 211, in vitro, read-out: minimum inhibitory concentration (MIC)
[11] = organism A, Staphylococcus aureus 209, in vitro, read-out: minimum inhibitory concentration (MIC)

COc1ccc(C(=O)c2cc(Cl)c(Cl)[nH]2)cc1 [Example 7, 4,5-dichloropyrrol-2-yl 4-methoxyphenyl ketone]
inhibition of growth at 10 µg/mL (Ceratocystis ulmi [1]; [6]): 32%
inhibition of growth at 10 µg/mL (Ceratocystis ulmi [2]; [7]): 61%
MIC (Escherichia coli 198; [8]): 15.6 µg/mL (≈ 57.8 µM)
MIC [3]: > 62.5 µg/mL
MIC (Proteus vulgaris 9920; [9]): 62.5 µg/mL (≈ 231 µM)
MIC [4, 10]: > 250 µg/mL
MIC [5, 11]: > 31.6 µg/mL

COc1ccc(OC)c(C(=O)c2cc(Br)c(Br)[nH]2)c1 [Example 2, 4,5-dibromopyrrol-2-yl 2,5-dimethoxyphenyl ketone]
inhibition of growth at 10 µg/mL (Ceratocystis ulmi [1]; [6]): 32%
inhibition of growth at 10 µg/mL (Ceratocystis ulmi [2]; [7]): 38%
MIC (Escherichia coli 198; [8]): > 125 µg/mL
MIC [3]: > 125 µg/mL
MIC (Proteus vulgaris 9920; [9]): > 125 µg/mL
MIC [4, 10]: > 125 µg/mL
MIC [5, 11]: 31.3 µg/mL (≈ 80.5 µM)

O=C(c1cc(Cl)c(Cl)[nH]1)c1cc(O)ccc1O [Example 10, 4,5-dichloropyrrol-2-yl 2,5-dihydroxyphenyl ketone]
inhibition of growth at 10 µg/mL (Ceratocystis ulmi [1]; [6]): 21%
inhibition of growth at 10 µg/mL (Ceratocystis ulmi [2]; [7]): 64%
MIC (Escherichia coli 198; [8]): 125 µg/mL (≈ 459 µM)
MIC [3]: 125 µg/mL (≈ 459 µM)
MIC (Proteus vulgaris 9920; [9]): 62.5 µg/mL (≈ 230 µM)
MIC [4, 10]: 125 µg/mL (≈ 459 µM)
MIC [5, 11]: 0.98 µg/mL (≈ 3.6 µM)

O=C(c1cc(Cl)c(Cl)[nH]1)c1ccc(O)cc1O [Example 9, 4,5-dichloropyrrol-2-yl 2,4-dihydroxyphenyl ketone]
inhibition of growth at 10 µg/mL (Ceratocystis ulmi [1]; [6]): 55%
inhibition of growth at 10 µg/mL (Ceratocystis ulmi [2]; [7]): 72%
MIC (Escherichia coli 198; [8]): 31.3 µg/mL (≈ 115 µM)
MIC [3]: > 125 µg/mL
MIC (Proteus vulgaris 9920; [9]): > 125 µg/mL
MIC [4, 10]: > 125 µg/mL
MIC [5, 11]: 3.9 µg/mL (≈ 14.3 µM)

O=C(c1cc(Cl)c(Cl)[nH]1)c1c(O)cccc1O [Pyoluteorin, 4,5-dichloropyrrol-2-yl 2,6-dihydroxyphenyl ketone, reference compound]
inhibition of growth at 10 µg/mL (Ceratocystis ulmi [1]): 4%
inhibition of growth at 10 µg/mL (Ceratocystis ulmi [2]): 38%
MIC (Escherichia coli 198; Escherichia coli, 198, read-out: minimum inhibitory concentration (MIC)): 6.2 µg/mL (≈ 22.8 µM)
MIC (Proteus vulgaris 9920; Proteus vulgaris, 9920, read-out: minimum inhibitory concentration (MIC)): 125 µg/mL (≈ 459 µM)
MIC ([4]; Pseudomonas aeruginosa, 211, read-out: minimum inhibitory concentration (MIC)): 125 µg/mL (≈ 459 µM)
MIC ([5]; Staphylococcus aureus, 209, read-out: minimum inhibitory concentration (MIC)): 3.1 µg/mL (≈ 11.4 µM)

COc1cccc(C(=O)c2cc(Br)c(Br)[nH]2)c1 [Example 8, 4,5-dibromopyrrol-2-yl 3-methoxyphenyl ketone]
inhibition of growth at 10 µg/mL (Ceratocystis ulmi [1]; [6]): 28%
inhibition of growth at 10 µg/mL (Ceratocystis ulmi [2]; [7]): 75%
MIC (Escherichia coli 198; [8]): 250 µg/mL (≈ 696 µM)
MIC [3]: > 250 µg/mL
MIC (Proteus vulgaris 9920; [9]): 125 µg/mL (≈ 348 µM)
MIC [4, 10]: > 125 µg/mL
MIC [5, 11]: 250 µg/mL (≈ 696 µM)

COc1ccc(C(=O)c2cc(Cl)c(Cl)[nH]2)c(OC)c1 [Example 1, 4,5-dichloropyrrol-2-yl 2,4-dimethoxyphenyl ketone]
inhibition of growth at 10 µg/mL (Ceratocystis ulmi [1]; [6]): 28%
inhibition of growth at 10 µg/mL (Ceratocystis ulmi [2]; [7]): 30%
MIC (Escherichia coli 198; [8]): > 125 µg/mL
MIC [3]: > 125 µg/mL
MIC (Proteus vulgaris 9920; [9]): > 125 µg/mL
MIC [4, 10]: > 125 µg/mL
MIC [5, 11]: 62.5 µg/mL (≈ 208 µM)

O=C(c1cc(Br)c(Br)[nH]1)c1cc(O)ccc1O [Example 5, 4,5-dibromopyrrol-2-yl 2,5-dihydroxyphenyl ketone]
inhibition of growth at 10 µg/mL (Ceratocystis ulmi [1]; [6]): 28%
inhibition of growth at 10 µg/mL (Ceratocystis ulmi [2]; [7]): 83%
MIC (Escherichia coli 198; [8]): 125 µg/mL (≈ 346 µM)
MIC [3]: > 125 µg/mL
MIC (Proteus vulgaris 9920; [9]): 62.5 µg/mL (≈ 173 µM)
MIC [4, 10]: 125 µg/mL (≈ 346 µM)
MIC [5, 11]: 15.6 µg/mL (≈ 43.2 µM)

COc1ccc(OC)c(C(=O)c2cc(Cl)c(Cl)[nH]2)c1 [Example 4, 4,5-dichloropyrrol-2-yl 2,5-dimethoxyphenyl ketone]
inhibition of growth at 10 µg/mL (Ceratocystis ulmi [1]; [6]): 48%
inhibition of growth at 10 µg/mL (Ceratocystis ulmi [2]; [7]): 72%
MIC (Escherichia coli 198; [8]): > 125 µg/mL
MIC [3]: > 125 µg/mL
MIC (Proteus vulgaris 9920; [9]): > 125 µg/mL
MIC [4, 10]: > 125 µg/mL
MIC [5, 11]: > 125 µg/mL

COc1ccc(C(=O)c2cc(Br)c(Br)[nH]2)cc1 [Example 6, 4,5-dibromopyrrol-2-yl 4-methoxyphenyl ketone]
inhibition of growth at 10 µg/mL (Ceratocystis ulmi [1]; [6]): 11%
inhibition of growth at 10 µg/mL (Ceratocystis ulmi [2]; [7]): 66%
MIC (Escherichia coli 198; [8]): > 125 µg/mL
MIC [3]: > 125 µg/mL
MIC (Proteus vulgaris 9920; [9]): > 125 µg/mL
MIC [4, 10]: > 125 µg/mL
MIC [5, 11]: > 125 µg/mL

COc1ccc(C(=O)c2cc(Cl)c(Cl)[nH]2)cc1OC [Example 3, 4,5-dichloropyrrol-2-yl 3,4-dimethoxyphenyl ketone]
inhibition of growth at 10 µg/mL (Ceratocystis ulmi [1]; [6]): 25%
inhibition of growth at 10 µg/mL (Ceratocystis ulmi [2]; [7]): 75%
MIC (Escherichia coli 198; [8]): > 125 µg/mL
MIC [3]: > 125 µg/mL
MIC (Proteus vulgaris 9920; [9]): > 125 µg/mL
MIC [4, 10]: > 125 µg/mL
MIC [5, 11]: > 125 µg/mL

From patent US4000160A, “Pyrrolyl oxyphenyl ketones” (Sterling Drug Inc., priority 1975, dated 1976)
